Data: patent US10426765B2, “Pharmaceutical composition containing nicotinic acid and/or nicotinamide and/or tryptophan for positively influencing the intestinal microbiota” (CONARIS RESEARCH INSTITUTE AG, priority 2012, dated 2019)

Columns and labels:
[1] = tested on: DSS colitis in ACE2-deficient mice; experiment: DSS colitis in ACE2-deficient mice given nicotinamide or tryptophan dipeptides (Example 1); format: in vivo; details: prophylactic and permanent administration
Excerpt: Top row: histopathology of the colon (haematoxylin eosin staining on day 10 after DSS administration; bar: 100 μm (a)), weight loss in percent (b) and diarrhea score (c) of DSS-challenged ACE2-normal (ACE2+/y) and ACE2-deficient (ACE2-/y) mice which were given vehicle or nicotinamide (NAM) in the drinking water. The NAM administration began 3 days before the DSS administration. Bottom row: histopathology of the colon (haematoxylin eosin staining on day 7 after DSS challenge; bar: 100 μm (d)), weight loss in percent (e) and damage of the crypts of the colon (f) in DSS-challenged ACE2-normal (ACE2+/y) and ACE2-deficient (ACE2-/y) mice which received normal diet (control) or a tryptophan-dipeptide diet (Trp+). New and findings unpublished at the time the priority application was filed, since published as Hashimoto et al. (Nature 2012, 487:477), support the teachings of the present invention and are briefly described here for the purpose of illustration: It is known that the expression of the transporter for neutral amino acids B^0 AT1 (which transports tryptophan) on the surface of intestinal epithelial cells is bound to the presence of the angiotensin converting enzyme 2 (ACE2) (Kowalczuk et al. 2008, FASEB J. 22:2880; Camargo et al. 2009, Gastroenterology 136:872). […]

[2] = tested on: Crohn's disease; experiment: Crohn's disease activity index (CDAI) in patients treated with nicotinamide (Example 2); format: in vivo, human; details: three Crohn's disease patients
Excerpt: A value of CDAI<150 is equivalent to remission.

[3] = cited from earlier work

For `NC(=O)c1cccnc1` [nicotinamide], the “intensification of DSS-induced intestinal inflammation in Ace2-/y mice” value [1] was “reduce this effect”, the “response of Crohn's disease activity index (CDAI)” value ([2]; conventionally formulated nicotinamide 2×600 mg daily for 4 weeks) was “clear response” and the “remission (CDAI<150) within the therapy period” value ([2]; nicotinamide 2×600 mg daily for 4 weeks) was “two of them achieved the remission”. For the same compound, the water solubility [3] was “high water solubility”.
